Holding throughout (type): cell-based
The subject of data set [1] is HCV replicon. The experiment in a line: HCV replicon assay (luciferase). The settings on record: for IC50: firefly luciferase HCV replicon cells (Huh-3-1), cultured three days with compound; for HCV replicon activity compared with control siRNA-treated cells: Huh-3-1 cells, siRNA 35 nM, four days; for HCV replication (replicon activity) versus viable cell count: HCV replicon cells, 72 hours. How it is done: (§1) Firefly luciferase HCV replicon cells (Huh-3-1) suspended in Dulbecco's MEM (Gibco Cat. No. 10569) containing 5% fetal bovine serum (Hyclone Cat. No. SH30071.03) were plated onto a 96-well plate at 5000 cells/well, and cultured overnight under 5% CO2 at 37° C. Approximately 20 hours later, fumonisin B1 was added to a final concentration of 1.37 μM to 1000 μM by carrying out a sequential three-fold dilution, and the cells were then cultured for three more days. The assay was carried out by preparing two types of assay plates: one an opaque white plate and the other a transparent plate. After culturing, the white plate was subjected to the Steady-Glo Luciferase Assay System (Promega Cat. No. E2520). More specifically, 100 μL of reagent was added to each well, mixed three to four times using a pipette, and then stood for five minutes before luminescence was measured using 1450 MicroBeta TRILUX (WALLAC). IC50 (50% inhibitory concentration) of a pharmaceutical agent was calculated by subtracting the value obtained without adding the cells as the background value from all of the values, and then defining the level of inhibition without addition of the pharmaceutical agent as 0%. A Cell Counting Kit-8 (DOJINDO Laboratories, Cat. No. 341-07761) was used for the cytotoxicity assays. 10 μL of reagent was added to each well, mixed three to four times using a pipette, and then stood for approximately 30 minutes; measurements were performed when OD450 nm reached approximately 1.0. IC50 (50% inhibitory concentration) of a pharmaceutical agent was calculated by subtracting the value obtained without adding the cells as the background value from all of the values, and then defining the level of inhibition without addition of the pharmaceutical agent as 0%.
(§2) Based on the results of Example 5, the following method was used to measure the effect on cytotoxicity and HCV replicon activity under conditions in which Huh-3-1 cells show reduced LCB1 expression. More specifically, cells were plated onto a 96-well plate at 3500 cells per well, and cultured overnight under 5% CO2 at 37° C. 1.75 μL of 2 μM siRNA was added to 23.3 μL of ECR buffer (buffer included in the RNAiFect Kit), this was stirred vigorously, and then 0.31 μL of RNAiFect transfection reagent was added. This was stirred gently at room temperature and then allowed to stand for ten minutes. siRNA was added to a final concentration of 35 nM, and this was cultured for four days. The effect on cytotoxicity was determined by adding 10 μL of Cell Counting Kit-8 (DOJINDO Laboratories Cat. No. 341-07761) to the medium, mixing three to four times using a pipette, and then allowing this to stand for one hour at 37° C. Absorbance was then measured at 450 nm using a microplate reader Emax (Molecular Devices). After incubation, the medium was exchanged for fresh medium, and the plate was subjected to the Steady-Glo Luciferase Assay System (Promega Cat. No. E2520). 100 μL of reagent was added to each well, mixed three to four times using a pipette, and then allowed to stand for five minutes. Luminescence was then measured using 1450 MicroBeta TRILUX (WALLAC) to determine the HCV replicon activity. IC50 (50% inhibitory concentration) of a pharmaceutical agent was calculated by subtracting the value obtained without adding the cells as the background value from all of the values, and then defining the level of inhibition without addition of the pharmaceutical agent as 0%.
First, to quantify the copy number of HCV-RNA, an RNA was constructed such that a firefly-derived luciferase gene was introduced into the HCV-RNA as a reporter gene. According to the method of Krieger et al. (J. Virol., 75: 4614), the luciferase gene was introduced immediately after the Internal Ribosome Entry Site (IRES) of the HCV gene, so that the gene was fused with the neomycin-resistance gene. […]
On the technique in general: A replicon is a self-replicating genome or part of one, used to study replication in cells.

Data set [2] can be described thus: in vitro. As to conditions: human, Huh-3-1 replicon cells, three days, Cell Counting Kit-8; read-out: Cytotoxicity CC50. How it is done:
as §1, §2
(§3) A Cell Counting Kit-8 (DOJINDO Laboratories, Cat. No. 341-07761) was used for the cytotoxicity assays. More specifically, 10 μL of Cell Counting Kit-8 was added to the transparent plate, and this was warmed at 37° C. for 30 to 60 minutes. Using a 96-well plate reader, absorbance was measured at a wavelength of 450 nm with a reference wavelength of 630 nm. […]

In data set [3] the test system is Huh-3-1 cells. The experiment in a line: in vitro. The settings on record: for effect of siRNA treatment on cytotoxicity: Huh-3-1 cells, siRNA 35 nM, four days; for CC50: Huh-3-1 replicon cells, three days, Cell Counting Kit-8, read-out: Cytotoxicity CC50. As to the method:
as §1, §2, §3

For data set [4], the system named is LCB1 (a subunit of the SPT heterodimer). In words: Inhibition of LCB1 protein expression by siRNAs, Western blotting. As to conditions: Huh-3-1 cells, siRNA 35 nM, four days. How it is done:
1.2×10^5 Huh-3-1 cells were plated onto a 6-well plate, and the cells were cultured overnight under 5% at 37° C. 2.3 μL of 20 μM siRNA was added to 100 μL of ECR buffer (a buffer included in the RNAiFect Kit), this was stirred vigorously, and after the addition of 4 μL of RNAiFect transfection reagent (Qiagen Cat. No. 301605) this was stirred gently at room temperature and allowed to stand for ten minutes. siRNA was added to a final concentration of 35 nM, and this was cultured for four days.
The cells were suspended in a cell lysis buffer (50 mM Tris-HCl (pH 7.5), 0.5% Triton, 3 mM EDTA, 150 mM NaCl, 12 mM glycerophosphate, 50 mM NaF, 1 mM Na3VO4, 0.5 mM PMSF, 0.5 mM aporotinin), and were allowed to stand on ice for ten minutes. This was centrifuged at 15,000×g for ten minutes, and the supernatant was collected. After quantifying the protein, the amount of protein in each sample was adjusted to 10 μg, and this was added to ¼ volume of 5×SDS sample buffer (125 mM Tris-HCl (pH 6.5), 25% Glycerol, 5% SDS, 0.25% BPB, 5% 2-Mercaptoethanol) and treated for five minutes at 98° C. […] The membranes were washed with 0.1% Tween 20/PBS, and then reacted for one minute with ECL, and the resulting signals were detected by autoradiography.
On the technique in general: Immunoblotting shows a protein as a band on a membrane.

As usually defined, the IC50 is the concentration needed to halve the response being measured. One may read the CC50 as the concentration giving 50% cytotoxicity. Take `CCCCCCCC(=O)CCCCCC/C=C/[C@H](C(=O)N[C@@H](Cc1ccc(C(F)(F)F)cc1)C(=O)O)[C@@](O)(CC(=O)O)C(=O)O` [(18)]: the IC50 in data set [1] (Hepatitis C virus, 72 h) came out at 0.068 µM. In addition, in data set [2], the CC50 is more than 1 µM.
Take `CCCCCCCC(=O)CCCCCCCC[C@H](C(=O)N[C@@H](Cc1ccc(O)cc1)C(=O)O)[C@@](O)(CC(=O)O)C(=O)O` [Compound (49)]: the CC50 in data set [2] was more than 50 µM.
Take `CCCCCCCCCCCCCC/C=C/[C@H](C(=O)N[C@@H](Cc1ccc(OCC=C(C)C)cc1)C(=O)O)[C@@](O)(CC(=O)O)C(=O)O` [Compound (52)]: the IC50 in data set [1] (Hepatitis C virus, 72 h) came to 0.1 µM. Moreover, the CC50 in data set [2] is more than 50 µM.
Turning to “si246: siRNA targeting LCB1, a subunit of the SPT heterodimer; SEQ ID NO: 1 (CAUCGUUUCAGGCCCUCCATT; chemistry not given here)”, the “HCV replicon activity compared with control siRNA-treated cells” value in data set [1] was “strong inhibitory effect”. The “effect of siRNA treatment on cytotoxicity” value in data set [3] is listed as “almost no effect”. The “LCB1 protein expression compared with control siRNA” value in data set [4] was “Particularly strong inhibition of expression”.
For the compound `CCCCCCCC(=O)CCCCCC/C=C/[C@H](C(=O)N[C@@H](Cc1ccc(O)cc1)C(=O)O)[C@@](O)(CC(=O)O)C(=O)O` [Compound (48)], the CC50 in data set [2] was more than 5 µM.
As for `CCCCCCCC(=O)CCCCCC/C=C/[C@H](C(=O)N[C@@H](Cc1ccc(OCC=C(C)C)cc1)C(=O)OC)[C@@](O)(CC(=O)OC)C(=O)O` [(42)], the CC50 in data set [2] was more than 1 µM.
Same read-out and setting: as for `CCCCCCCC(=O)CCCCCC/C=C/[C@H](C(=O)N[C@@H](Cc1ccc(OCC=C(C)C)cc1)C(N)=O)[C@@](O)(CC(N)=O)C(N)=O` [Compound (50)], the figure is more than 5 µM.
In the case of `CCCCCCCC(=O)CCCCCC/C=C/[C@H](C(=O)N[C@@H](Cc1ccc(OCC=C(C)C)cc1)C(=O)O)[C@@](O)(CC(=O)O)C(=O)O` [Compound (51)], the IC50 in data set [1] was 0.072 µM. The CC50 in data set [3] was more than 5 µM.
Take “si633: siRNA targeting LCB1, a subunit of the SPT heterodimer; SEQ ID NO: 2 (UGACAUGGCUGACCUCGAGTT; chemistry not given here)”: the “HCV replicon activity compared with control siRNA-treated cells” value in data set [1] is on record as “significantly inhibited”. In data set [3], the “effect of siRNA treatment on cytotoxicity” value is on record as “almost no effect”. Further, in data set [4], the “LCB1 protein expression compared with control siRNA” value was “decrease the level of LCB1 protein expression”.
For `CCCCCCC(O)C(=O)CCCCCC/C=C/[C@H](C(=O)N[C@@H](Cc1ccc(O)cc1)C(=O)O)[C@@](O)(CC(=O)O)C(=O)O` (stereo partly shown) [(43)], the CC50 in data set [2] was more than 1 µM.
Still for that read-out and setting: under `CCCCCCCC(O)CCCCCC/C=C/[C@H](C(=O)N[C@@H](Cc1ccc(OCC=C(C)C)cc1)C(=O)O)[C@@](O)(CC(=O)O)C(=O)O` (stereo partly shown) [Compound (47)] stands more than 5 µM.
For `CC(C)CCOc1ccc(C[C@H](NC(=O)[C@@H](/C=C/CCCCCCC(=O)CCCCC2CCCCC2)[C@](O)(CC(=O)O)C(=O)O)C(=O)O)cc1` [(38)], the IC50 in data set [1] was 0.024 µM. Further, the CC50 in data set [3] was more than 1 µM.
As to `CCCCCCCC(=O)CCCCCC/C=C/[C@H](C(=O)N[C@@H](Cc1ccc([N+](=O)[O-])cc1)C(=O)O)[C@@](O)(CC(=O)O)C(=O)O` [(21)], in data set [1] (Hepatitis C virus, 72 h), the IC50 was 0.08 µM. Also, in data set [2], the CC50 was more than 1 µM.
The like results for `CCCCCCCC(=O)CCCCCC/C=C/[C@H](C(=O)N[C@@H](Cc1ccc(C#N)cc1)C(=O)O)[C@@](O)(CC(=O)O)C(=O)O` [(19)] were, in that order, 0.012 µM and more than 1 µM.
Turning to `CCCCCCCC(=O)CCCCCC/C=C/[C@H](C(=O)N[C@@H](Cc1ccc(OCCC(C)C)cc1)C(=O)O)[C@@](O)(CC(=O)O)C(=O)O` [Compound (46)], the CC50 in data set [2] is more than 5 µM.
Same read-out and setting: as for `CCCCCCCC(CCCCCC/C=C/[C@H](C(=O)N[C@@H](Cc1ccc(OCC=C(C)C)cc1)C(=O)O)[C@@](O)(CC(=O)O)C(=O)O)=NOC` [(54)], the figure is more than 50 µM.
Consider `CCCCCCCCCCCC(=O)N[C@@H](CO)C[C@H](O)c1ccccc1` [HPA-12, reference compound], for which, in data set [1], the “HCV replication (replicon activity) versus viable cell count” value is listed as “suppressing the HCV replication at non-cytotoxic concentrations”.
`CCCCCCCC(=O)CCCCCC/C=C/[C@H](C(=O)N[C@@H](Cc1ccc(OCCCC)cc1)C(=O)O)[C@@](O)(CC(=O)O)C(=O)O` [(26)]: the CC50 in data set [2] is more than 1 µM.
On to `CCCC[C@@H](C)[C@@H](OC(=O)C[C@@H](CC(=O)O)C(=O)O)[C@H](C[C@@H](C)C[C@H](O)CCCC[C@@H](O)C[C@H](O)[C@H](C)N)OC(=O)C[C@@H](CC(=O)O)C(=O)O` [fumonisin B1, reference compound], for which, in data set [1], the “HCV replication (replicon activity) versus viable cell count” value was “suppressing the HCV replication at non-cytotoxic concentrations”.
In the case of `CCCCCCCC(=O)CCCCCC/C=C/[C@H](C(=O)N[C@@H](Cc1c[nH]c2ccccc12)C(=O)O)[C@@](O)(CC(=O)O)C(=O)O` [(44)], in data set [2], the CC50 is more than 1 µM.
Consider `CCCCCCCC(=O)CCCCCC/C=C/[C@H](C(=O)N[C@@H](Cc1ccc(OCC=C(C)C)cc1)C(=O)O)[C@@](O)(CC(=O)OC)C(=O)O` [(41)], for which the CC50 in data set [2] was more than 1 µM.
On the same count and under the same terms, under `CCCCCCC(O)C(=O)CCCCCC/C=C/[C@H](C(=O)N[C@@H](Cc1ccc(OCC=C(C)C)cc1)C(=O)O)[C@@](O)(CC(=O)O)C(=O)O` (stereo partly shown) [(45)] stands more than 1 µM.
Take `CCCCCCCC(=O)CCCCCC/C=C/[C@H](C(=O)N[C@@H](Cc1ccc(Cl)cc1)C(=O)O)[C@@](O)(CC(=O)O)C(=O)O` [(20)]: the IC50 in data set [1] (Hepatitis C virus, 72 h) came to 0.055 µM. The CC50 in data set [2] was more than 1 µM.
